What was measured:
HL-60 cells [1] = assay: Cell proliferation test (MTT method); assay type: cell-based; conditions: HL-60 cell proliferation, 48 h
Procedure: Tested drugs with different concentrations were added, and repeated four wells for each drug concentration group, then continued to culture in a CO2 incubator. Cell proliferation was detected by MTT method 48 h after culture. 15 ul MTT (5 mg/ml) was added in each well, and continued to culture for 4 h. Suspension in the well was collected, centrifuged, and supernatant was discarded. 100 ul of DMSO was added into each well to completely dissolve formazan particles. The solution was sucked into the original well, the absorbance at 492 nm was detected by ELISA, and the inhibiting rate was calculated according to the formula CI=(1-A test group /A control group)×100%.

HL-60 cells [2] = assay: Cell viability test (Trypan blue, live cell rate)

O=[As]([O-])([O-])[O-].[Na+].[Na+].[Na+] [Na3AsO4]
Inhibiting rate (HL-60 cells [1]; 7.5 uM): 2.5% | Inhibiting rate (HL-60 cells [1]; 15 uM): 7.9% | Inhibiting rate (HL-60 cells [1]; 30 uM): 13.9% | Inhibiting rate (HL-60 cells [1]; 60 uM): 24.5% | live cell rate at 4 d after administration (HL-60 cells [2]; 7.5 uM): 93.11% | live cell rate at 4 d after administration (HL-60 cells [2]; 15 uM): 89.06% | live cell rate at 4 d after administration (HL-60 cells [2]; 30 uM): 75.36% | live cell rate at 4 d after administration (HL-60 cells [2]; 60 uM): 60.06% | live cell rate at 4 d after administration (HL-60 cells [2]; 120 uM): 43.11%
